Here are results for 20 compounds from patent US11673867B2, “Sulfonamide derivative or pharmaceutically acceptable acid-addition salt” (University of Tsukuba, priority 2017, dated 2023).

For orientation: EC50 means the concentration at which the effect is half-maximal.

The first assay addresses T1, human OX2R (Homo sapiens, UniProt O43614).
T1 construct: expressed in transfected cells; host or cells: CHO (Chinese hamster ovary) cells, line CHOOX2R, also expressing NFAT-luciferase
T1 sequence (O43614 1-444): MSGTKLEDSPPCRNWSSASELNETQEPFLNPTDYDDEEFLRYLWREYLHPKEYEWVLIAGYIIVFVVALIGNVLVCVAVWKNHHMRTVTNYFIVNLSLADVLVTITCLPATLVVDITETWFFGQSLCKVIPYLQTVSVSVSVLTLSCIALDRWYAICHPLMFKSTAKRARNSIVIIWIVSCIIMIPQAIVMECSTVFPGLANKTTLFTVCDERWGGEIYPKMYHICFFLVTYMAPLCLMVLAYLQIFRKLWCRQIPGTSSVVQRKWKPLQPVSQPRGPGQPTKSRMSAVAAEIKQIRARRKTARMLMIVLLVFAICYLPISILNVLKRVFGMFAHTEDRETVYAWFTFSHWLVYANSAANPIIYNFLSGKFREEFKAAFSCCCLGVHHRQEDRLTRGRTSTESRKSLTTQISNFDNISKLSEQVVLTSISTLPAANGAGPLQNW
Nature of the assay: Evaluation of agonist activity against OX2R (intracellular calcium, Fura-2AM, FDSS7000, CHOOX2R cells). The class given is cell-based. The settings on record: CHO cells expressing human OX2R; calcium fluorescence ratio 340/380 nm; 10^-11.5 M to 10^-5 M. The method, then: Evaluation of Agonist Activity Against OX2R
NAFT-luciferase gene and human OX2R gene were constitutively expressed in CHO cell, which is a cell line derived from Chinese hamster ovary to establish a cell line (CHOOX2R). The cells were seeded in a 96-well Multiplate at 10,000 cells/well and cultured in a 5% FBS (Thermo Scientific)-added DMEM medium (Sigma-Aldrich) for 48 hr. The medium was removed, an assay buffer (20 mM HEPES (Sigma-Aldrich), Hanks' balanced salt solution (Gibco), 0.1% BSA (Sigma-Aldrich), 2.5 mM probenecid acid (Wako Pure Chemical Industries, Ltd.)) (100 μL) containing 4 μM Fura-2AM (Cayman Chemical) was added, and the cells were incubated for 60 min. The buffer containing Fura-2AM was removed, and an assay buffer (75 μL) was added. An assay buffer (25 μL) containing a test compound was added thereto to start the reaction. Changes in the intracellular calcium ion concentration due to the reaction were measured by measuring the fluorescence intensity ratio by dual wavelength excitation at 340 and 380 nm, by using FDSS7000 (Hamamatsu Photonics K.K.). The test compound was dissolved in DMSO to 10 mM, and diluted with the assay buffer to a final concentration of 10^−11.5 M to 10^−5 M (final concentration of DMSO 1%).
For orientation: Calcium flux is commonly read through the fluorescence of an indicator in the cells.
For the compound `CCCc1ccc(N2CCCN(c3cccc(NS(=O)(=O)c4cc(-c5cccc(C(=O)N(C)C)c5)ccc4OC)c3)C2=O)cc1` [Example 1, 4′-methoxy-N,N-dimethyl-3′-(N-(3-(2-oxo-3-(4-propylphenyl)tetrahydropyrimidin-1(2H)-yl)phenyl)sulfamoyl)-[1,1′-biphenyl]-3-carboxamide], the EC50 amounted to 0.61 nM.

As for `COc1ccc(-c2cccc(C(=O)N(C)C)c2)cc1S(=O)(=O)Nc1cccc(N2CCCN(c3ccc(C)cc3)C2=O)c1` [Example 2], the EC50 was determined as 5.12 nM.

As for `CCc1ccc(N2CCCN(c3cccc(NS(=O)(=O)c4cc(-c5cccc(C(=O)N(C)C)c5)ccc4OC)c3)C2=O)cc1` [Example 3], the EC50 was 3.1 nM.

In the case of `COc1ccc(-c2cccc(C(=O)N(C)C)c2)cc1S(=O)(=O)Nc1cccc(N2CCCN(c3ccc(C(C)C)cc3)C2=O)c1` [Example 4], the EC50 worked out at 3.3 nM.

With `COc1ccc(N2CCCN(c3cccc(NS(=O)(=O)c4cc(-c5cccc(C(=O)N(C)C)c5)ccc4OC)c3)C2=O)cc1` [Example 5], the EC50 came out at 2.41 nM.

For the compound `CCOc1ccc(N2CCCN(c3cccc(NS(=O)(=O)c4cc(-c5cccc(C(=O)N(C)C)c5)ccc4OC)c3)C2=O)cc1` [Example 6, 3′-(N-(3-(3-(4-ethoxyphenyl)-2-oxotetrahydropyrimidin-1(2H)-yl)phenyl)sulfamoyl)-4′-methoxy-N,N-dimethyl-[1,1′-biphenyl]-3-carboxamide], the EC50 worked out at 2.87 nM.

With `COc1ccc(-c2cccc(C(=O)N(C)C)c2)cc1S(=O)(=O)Nc1cccc(N2CCCN(c3ccc(OCC(F)(F)F)cc3)C2=O)c1` [Example 9], the EC50 was determined as 20 nM.

Take `COc1ccc(-c2cccc(C(=O)N(C)C)c2)cc1S(=O)(=O)Nc1cccc(N2CCCN(c3ccc(OCC(C)C)cc3)C2=O)c1` [Example 10]: the EC50 worked out at 65.9 nM.

In the case of `CCCCCCCCOc1ccc(N2CCCN(c3cccc(NS(=O)(=O)c4cc(-c5cccc(C(=O)N(C)C)c5)ccc4OC)c3)C2=O)cc1` [Example 11], the EC50 is > 500 nM.

As for `COc1ccc(-c2cccc(C(=O)N(C)C)c2)cc1S(=O)(=O)Nc1cccc(N2CCCN(c3ccc(Oc4ccccc4)cc3)C2=O)c1` [Example 12, 4′-methoxy-N,N-dimethyl-3′-(N-(3-(2-oxo-3-(4-phenoxyphenyl)tetrahydropyrimidin-1(2H)-yl)phenyl)sulfamoyl)-[1,1′-biphenyl]-3-carboxamide], the EC50 is 217 nM.

With `CCCCc1ccc(N2CCCN(c3cccc(NS(=O)(=O)c4cc(-c5cccc(C(=O)N(C)C)c5)ccc4OC)c3)C2=O)cc1` [Example 13, 3′-(N-(3-(3-(4-butylphenyl)-2-oxotetrahydropyrimidin-1(2H)-yl)phenyl)sulfamoyl)-4′-methoxy-N,N-dimethyl-[1,1′-biphenyl]-3-carboxamide], the EC50 was determined as 7.52 nM.

For `COc1ccc(-c2cccc(C(=O)N(C)C)c2)cc1S(=O)(=O)Nc1cccc(N2CCCN(c3ccc(-c4ccccc4)cc3)C2=O)c1` [Example 14], the EC50 came out at 140 nM.

On to `CCCCCCCCc1ccc(N2CCCN(c3cccc(NS(=O)(=O)c4cc(-c5cccc(C(=O)N(C)C)c5)ccc4OC)c3)C2=O)cc1` [Example 15], for which the EC50 is > 500 nM.

`[2H]C([2H])([2H])Oc1ccc(-c2cccc(C(=O)N(C)C)c2)cc1S(=O)(=O)Nc1cccc(N2CCCN(c3ccc(CCC)cc3)C2=O)c1` [Example 16, 4′-(methoxy-d3)-N,N-dimethyl-3′-(N-(3-(2-oxo-3-(4-propylphenyl)tetrahydropyrimidin-1(2H)-yl)phenyl)sulfamoyl)-[1,1′-biphenyl]-3-carboxamide]: the EC50 stood at 0.843 nM.

As to `CCCc1ccc(N2CCCN(c3cccc(NS(=O)(=O)c4cc(-c5cccc(C(=O)N(C)C)c5)ccc4OC(F)(F)F)c3)C2=O)cc1` [Example 17, N,N-dimethyl-3′-(N-(3-(2-oxo-3-(4-propylphenyl)tetrahydropyrimidin-1(2H)-yl)phenyl)sulfamoyl)-4′-(trifluoromethoxy)-[1,1′-biphenyl]-3-carboxamide], the EC50 was determined as 395 nM.

As for `CCCc1ccc(N2CCCN(c3cccc(NS(=O)(=O)c4cc(C5CNC(=O)C5)ccc4OC)c3)C2=O)cc1` (stereo not shown) [Example 18, 2-methoxy-N-(3-(2-oxo-3-(4-propylphenyl)tetrahydropyrimidin-1(2H)-yl)phenyl)-5-(5-oxopyrrolidin-3-yl)benzenesulfonamide], the EC50 is 6.31 nM.

Take `CCCc1ccc(N2CCCN(c3cccc(NS(=O)(=O)c4cc(C(C)C)ccc4OC)c3)C2=O)cc1` [Example 19, 5-isopropyl-2-methoxy-N-(3-(2-oxo-3-(4-propylphenyl)tetrahydropyrimidin-1(2H)-yl)phenyl)benzenesulfonamide]: the EC50 was 19.6 nM.

Turning to `COc1ccc(C(C)C)cc1S(=O)(=O)Nc1cccc(N2CCCN(c3ccc(C(C)C)cc3)C2=O)c1` [Example 20], the EC50 is 41.4 nM.

For the compound `COc1ccc(N2CCCN(c3cccc(NS(=O)(=O)c4cc(C(C)C)ccc4OC)c3)C2=O)cc1` [Example 21], the EC50 is 81.7 nM.

As to `CCOc1ccc(N2CCCN(c3cccc(NS(=O)(=O)c4cc(C(C)C)ccc4OC)c3)C2=O)cc1` [Example 22], the EC50 worked out at 38.1 nM.

For a further assay, the system named is C57BL/6J lineage wild-type (WT) mice. The experiment in a line: Awakening effect of oral administration (light period) to wild-type mice (EEG/EMG). It counts as in vivo, mouse. The settings on record: ZT6 light period, 0.625 mg/kg-25 mg/kg, versus control MC, 60, 120, 180 min after administration, n=3. The text has this:
Awakening Effect of Oral Administration (Light Period) of Test Compound to Wild-Type Mice
As the test compound, the compound of Example 1 was used.
C57BL/6J lineage wild-type (WT) mice, and orexin receptor-deficient mice (DKO mice) (both males) as a negative control were used as experimental animals. The mice (9 to 35 weeks of age) underwent surgery for embedding electroencephalogram electrodes into the skull (Bregma: X=1.5; Y=0.6, Lambda: X=1.5; Y=0) and inserting electromyogram electrodes into the trapezius muscle under isoflurane anesthesia. Two weeks postoperation were the recovery period and acclimation period to the electroencephalogram/electromyogram measurement cage, after which administration and measurement were performed. To prepare a suspension for oral administration of the test compound, the compound was grinded in an agate mortar for 20 min and sufficiently stirred while adding a small amount of 0.5% methylcellulose aqueous solution (MC). The suspension (100 μL) was dispensed into an oral gavage needle. […]
To the WT mice were orally administered 100 μL each of the control MC or the test compound during the light period (ZT6) in the sleep period. […] DKO mice were also evaluated by a similar method, in which MC or a test compound (5 mg/kg) was orally administered, and electroencephalogram and electromyogram were measured for 3 hr after the administration. […]
Consider `CCCc1ccc(N2CCCN(c3cccc(NS(=O)(=O)c4cc(-c5cccc(C(=O)N(C)C)c5)ccc4OC)c3)C2=O)cc1` [Example 1, 4′-methoxy-N,N-dimethyl-3′-(N-(3-(2-oxo-3-(4-propylphenyl)tetrahydropyrimidin-1(2H)-yl)phenyl)sulfamoyl)-[1,1′-biphenyl]-3-carboxamide], for which the “awakening time (awakening prolonging effect)” value is “significantly prolonged the awakening time and increased the awakening time in a dose-dependent manner”.

The next assay concerns orexin receptor-deficient mice (DKO mice). The experiment in a line: Awakening effect of oral administration to orexin receptor-deficient mice (DKO mice), negative control (EEG/EMG). The class given is in vivo, mouse. Conditions: oral 5 mg/kg, versus control MC, measured 3 hr after administration, n=3. The text has this: C57BL/6J lineage wild-type (WT) mice, and orexin receptor-deficient mice (DKO mice) (both males) as a negative control were used as experimental animals. The mice (9 to 35 weeks of age) underwent surgery for embedding electroencephalogram electrodes into the skull (Bregma: X=1.5; Y=0.6, Lambda: X=1.5; Y=0) and inserting electromyogram electrodes into the trapezius muscle under isoflurane anesthesia. Two weeks postoperation were the recovery period and acclimation period to the electroencephalogram/electromyogram measurement cage, after which administration and measurement were performed. To prepare a suspension for oral administration of the test compound, the compound was grinded in an agate mortar for 20 min and sufficiently stirred while adding a small amount of 0.5% methylcellulose aqueous solution (MC). The suspension (100 μL) was dispensed into an oral gavage needle. The suspensions were prepared 30 min before administration.
To the WT mice were orally administered 100 μL each of the control MC or the test compound during the light period (ZT6) in the sleep period. The test compound was administered at concentrations of 0.625 mg/kg-25 mg/kg according to the stage. DKO mice were also evaluated by a similar method, in which MC or a test compound (5 mg/kg) was orally administered, and electroencephalogram and electromyogram were measured for 3 hr after the administration. […]
Consider `CCCc1ccc(N2CCCN(c3cccc(NS(=O)(=O)c4cc(-c5cccc(C(=O)N(C)C)c5)ccc4OC)c3)C2=O)cc1` [Example 1, 4′-methoxy-N,N-dimethyl-3′-(N-(3-(2-oxo-3-(4-propylphenyl)tetrahydropyrimidin-1(2H)-yl)phenyl)sulfamoyl)-[1,1′-biphenyl]-3-carboxamide], for which the “awakening time (awakening prolonging effect)” value was “no significant difference in the awakening time”.
